Test results taken from publication PMC8951032, “Study of Biological Activities and ADMET-Related Properties of Novel Chlorinated N-arylcinnamamides” (International Journal of Molecular Sciences, 2022).
In brackets after ≈: the same amount, converted by molar mass. Read-outs that look alike come from different tables or passages of the source.

What was measured:
[1] = Lipophilicity determination by RP-HPLC (log k, log D); format: physicochemical; settings: for log k: MeOH 72%/H2O 28%; for log D6.5: MeOH 72%/acetate buffered saline pH 6.5; for log D7.4: MeOH 72%/acetate buffered saline pH 7.4
Procedure: In addition to the mentioned ADME profile, it is responsible for interactions with biological targets. Lipophilicity is recognized as one of the most important parameters influencing ADME and bioactivity and is also part, e.g., of Lipinski’s Rule of Five (Ro5). This thermodynamic parameter describing the molecule’s affinity for an aqueous or relatively lipophilic environment can be characterized by the logarithm of the partition coefficient (log P). In this study, lipophilicity was measured by reversed-phase high-performance liquid chromatography (RP-HPLC) under isocratic conditions with methanol as the organic modifier in the aqueous mobile phase and the logarithm of the capacity factor k was calculated, which is used as the lipophilicity index converted to the log P scale. In addition to the log k values, the logarithm of the distribution coefficient DpH at pH 6.5 and 7.4 was determined to clarify the behavior of the compounds under physiological conditions and possible ionization. Instead of water, a buffer of suitable pH was used as part of the mobile phase. In addition to the above-mentioned experimental methods, commercially available ChemBioDraw Ultra 13.0 and ACD/Percepta ver. 2012 programs were used to calculate the lipophilicity values of all prepared compounds.
A HPLC separation module Waters Alliance 2695 XE equipped with a Waters Dual Absorbance Detector 2486 (Waters Corp., Milford, MA, USA) was used. A chromatographic column Symmetry® C18 5 μm, 4.6 × 250 mm, Part No. W21751W016 (Waters Corp., Milford, MA, USA) was used. The HPLC separation process was monitored by Empower® 3 Chromatography Manager Software (Waters Corp.). Isocratic elution by a mixture of MeOH p.a. (72%) and H2O-HPLC Mili-Q grade (28%) as a mobile phase was used for the determination of capacity factor k. Isocratic elution by a mixture of MeOH p.a. (72%) and acetate buffered saline (pH 7.4 and pH 6.5) (28%) as a mobile phase was used for the determination of distribution coefficient expressed as D7.4 and D6.5. The total flow of the column was 1.0 mL/min, injection 20 μL, column temperature 40 °C, and sample temperature 10 °C. The detection wavelength of 210 nm was chosen. A KI methanolic solution was used for the determination of the dead times (tD). Retention times (tR) were measured in minutes. The capacity factors k were calculated according to the formula k = (tR − tD)/tD, where tR is the retention time of the solute, and tD is the dead time obtained using an unretained analyte. The distribution coefficients DpH were calculated according to the formula DpH = (tR − tD)/tD. Each experiment was repeated three times.

[2] = tested on: Mycobacterium marinum CAMP 5644; test: In vitro antimycobacterial activity, broth dilution MIC; format: cell-based; settings: CAMP5644, 504 h
[3] = tested on: Mycobacterium smegmatis ATCC 700084; test: as above; format: cell-based; settings: Mycolicibacterium smegmatis
[4] = M. marinum CAMP 5644, 21 days, read-out: MIC MM
[5] = M. marinum CAMP 5644, read-out: log(1/MIC [M]) MM (converted)
[6] = ATCC700084, 72 h, M. smegmatis ATCC 700084, three days, read-out: MIC MS
[7] = ATCC700084, M. smegmatis ATCC 700084, read-out: log(1/MIC [M]) MS (converted)

SMILES	log k [1]	log D6.5 [1]	log D7.4 [1]	MIC [2, 4]	MIC [2, 5]	MIC [3, 6]	MIC [3, 7]
O=C(/C=C/c1ccc(Cl)cc1)Nc1ccc(OC(F)(F)F)cc1 [1k, (2E)-3-(4-Chlorophenyl)-N-[4-(trifluoromethoxy)phenyl]prop-2-enamide]	0.8759	0.8702	0.8754				
O=C(/C=C/c1ccc(Cl)cc1)Nc1ccc(C(F)(F)F)cc1 [1j, (2E)-3-(4-Chlorophenyl)-N-[4-(trifluoromethyl)phenyl]prop-2-enamide]	0.9078	0.8541	0.8560				
O=C(/C=C/c1ccc(Cl)cc1)Nc1cc(F)cc(F)c1 [1m, (2E)-3-(4-Chlorophenyl)-N-(3,5-difluorophenyl)prop-2-enamide]	0.8054	0.7502	0.7537				
O=C(/C=C/c1ccc(Cl)cc1)Nc1ccc(F)cc1F [1l, (2E)-3-(4-Chlorophenyl)-N-(2,4-difluorophenyl)prop-2-enamide]	0.5746	0.5172	0.5223				
O=C(/C=C/c1ccc(Cl)cc1)Nc1ccccc1 [1a, (2E)-3-(4-Chlorophenyl)-N-phenylprop-2-enamide]	0.4490	0.4428	0.4515				
O=C(/C=C/c1ccc(Cl)cc1)Nc1ccccc1Cl [1e, (2E)-N-(2-Chlorophenyl)-3-(4-chlorophenyl)prop-2-enamide]	0.5241	0.4650	0.4724				
CO[C@H]1/C=C/O[C@@]2(C)Oc3c(C)c(O)c4c(O)c(c(/C=N/N5CCN(C)CC5)c(O)c4c3C2=O)NC(=O)/C(C)=C\C=C\[C@H](C)[C@H](O)[C@@H](C)[C@@H](O)[C@@H](C)[C@H](OC(C)=O)[C@@H]1C [RIF, rifampicin, reference compound]				2.43e-06 M (≈ 2 µg/mL)	2.45e-06 M (≈ 2.02 µg/mL)	1.94e-05 M (≈ 16 µg/mL)	1.95e-05 M (≈ 16 µg/mL)
O=C(/C=C/c1ccc(Cl)cc1)Nc1ccc(Cl)cc1Cl [1n, (2E)-3-(4-Chlorophenyl)-N-(2,4-dichlorophenyl)prop-2-enamide]	0.9665	0.9141	0.9170				
O=C(/C=C/c1ccc(Cl)cc1)Nc1cccc(F)c1 [1c, (2E)-3-(4-Chlorophenyl)-N-(3-fluorophenyl)prop-2-enamide]	0.7859	0.7296	0.7325				
O=C(/C=C/c1ccc(Cl)cc1)Nc1ccc(F)cc1 [1d, (2E)-3-(4-Chlorophenyl)-N-(4-fluorophenyl)prop-2-enamide]	0.7808	0.7252	0.7290				
O=C(/C=C/c1ccc(Cl)cc1)Nc1ccccc1F [1b, (2E)-3-(4-Chlorophenyl)-N-(2-fluorophenyl)prop-2-enamide]	0.6459	0.5908	0.5965				
O=C(/C=C/c1ccc(Cl)cc1)Nc1cccc(Cl)c1 [1f, (2E)-N-(3-Chlorophenyl)-3-(4-chlorophenyl)prop-2-enamide]	0.6192	0.5603	0.5666				
O=C(/C=C/c1ccc(Cl)cc1)Nc1ccc(Cl)cc1 [1g, (2E)-N,3-bis(4-Chlorophenyl)prop-2-enamide]	0.5598	0.5012	0.5065				
O=C(/C=C/c1ccc(Cl)cc1)Nc1ccccc1C(F)(F)F [1h, (2E)-3-(4-Chlorophenyl)-N-[2-(trifluoromethyl)phenyl]prop-2-enamide]	0.5506	0.4938	0.5010				
O=C(/C=C/c1ccc(Cl)cc1)Nc1cc(Cl)ccc1Cl [1o, (2E)-3-(4-Chlorophenyl)-N-(2,5-dichlorophenyl)prop-2-enamide]	0.9507	0.8986	0.9010				
NNC(=O)c1ccncc1 [INH, isoniazid, reference compound]				0.000467 M (≈ 64 µg/mL)	0.000468 M (≈ 64.1 µg/mL)	0.000117 M (≈ 16 µg/mL)	0.000117 M (≈ 16.1 µg/mL)

Second part, led by results:

log k [1]	log D6.5 [1]	log D7.4 [1]	SMILES	MIC [2, 4]	MIC [2, 5]	MIC [3, 6]	MIC [3, 7]
0.7404	0.7816	0.7616	O=C(/C=C/c1ccc(Cl)c(Cl)c1)Nc1cccc(Cl)c1 [2f, (2E)-N-(3-Chlorophenyl)-3-(3,4-dichlorophenyl)prop-2-enamide]				
0.6989	0.7094	0.6632	O=C(/C=C/c1ccc(Cl)c(Cl)c1)Nc1ccc(F)cc1F [2l, (2E)-3-(3,4-Dichlorophenyl)-N-(2,4-difluorophenyl)prop-2-enamide]				
0.9009	0.9381	0.8660	O=C(/C=C/c1ccc(Cl)c(Cl)c1)Nc1ccc(F)cc1 [2d, (2E)-N-(4-Fluorophenyl)-3-(3,4-dichlorophenyl)prop-2-enamide]				
0.9071	0.9453	0.8735	O=C(/C=C/c1ccc(Cl)c(Cl)c1)Nc1cccc(F)c1 [2c, (2E)-N-(3-Fluorophenyl)-3-(3,4-dichlorophenyl)prop-2-enamide]				
1.3043	1.3336	1.3080	O=C(/C=C/c1ccc(Cl)c(Cl)c1)Nc1cc(Cl)cc(Cl)c1 [2p, (2E)-N-(3,5-Dichlorophenyl)-3-(3,4-dichlorophenyl)prop-2-enamide]				
0.6488	0.6925	0.6739	O=C(/C=C/c1ccc(Cl)c(Cl)c1)Nc1ccccc1Cl [2e, (2E)-N-(2-Chlorophenyl)-3-(3,4-dichlorophenyl)prop-2-enamide]				
0.7764	0.8203	0.8019	O=C(/C=C/c1ccc(Cl)c(Cl)c1)Nc1ccccc1F [2b, (2E)-N-(2-Fluorophenyl)-3-(3,4-dichlorophenyl)prop-2-enamide]				
1.0932	1.0985	1.0565	O=C(/C=C/c1ccc(Cl)c(Cl)c1)Nc1ccc(Cl)cc1Cl [2n, (2E)-N-(2,4-Dichlorophenyl)-3-(3,4-dichlorophenyl)prop-2-enamide]				
0.6836	0.7295	0.6526	O=C(/C=C/c1ccc(Cl)c(Cl)c1)Nc1ccccc1C(F)(F)F [2h, (2E)-3-(3,4-Dichlorophenyl)-N-[2-(trifluoromethyl)phenyl]prop-2-enamide]				
0.9298	0.9345	0.8882	O=C(/C=C/c1ccc(Cl)c(Cl)c1)Nc1cc(F)cc(F)c1 [2m, (2E)-3-(3,4-Dichlorophenyl)-N-(3,5-difluorophenyl)prop-2-enamide]				
0.6786	0.7224	0.7021	O=C(/C=C/c1ccc(Cl)c(Cl)c1)Nc1ccc(Cl)cc1 [2g, (2E)-N-(4-Chlorophenyl)-3-(3,4-dichlorophenyl)prop-2-enamide]				
1.0840	1.0887	1.0474	O=C(/C=C/c1ccc(Cl)c(Cl)c1)Nc1cc(Cl)ccc1Cl [2o, (2E)-N-(2,5-Dichlorophenyl)-3-(3,4-dichlorophenyl)prop-2-enamide]				
